Here are results for one compound from BindingDB's records for PubMed 36966976 (Csir-Indian Institute of Chemical Technology (CSIR-IICT), 2023).

The target in this test is Alpha-synuclein (Homo sapiens, UniProt P37840).

The Kd is the free concentration of one partner at which half of the binding sites on the other are occupied at equilibrium, for simple one-to-one binding. The compound `OCCOC(=C\C=C1N(c2ccccc2)c2cc3ccccc3cc2N1c1ccccc1)/C=C/c1n(-c2ccccc2)c2cc3ccccc3cc2[n+]1-c1ccccc1` showed a Kd of 3.8 nM. In other words, the single-digit nanomolar range.
